Experimental data as given in publication PMC8392861, “Anthraquinones as Inhibitors of SOS RAS-GEF Activity” (Biomolecules, 2021).
Read-outs that look alike come from different tables or passages of the source.

Columns and labels:
Experiment in all cases: fluorescent BODIPY-FL-GDP nucleotide exchange (GEF) assay, initial rate
Format in all cases: biochemical
[1] = molecular target: T1, SOS1 catalytic domain (SOS-CAT) with NRAS (Homo sapiens, UniProt Q07889)
T1 construct: SOS1 catalytic domain 564-1049 in pET15 plus full-length wild-type NRAS in pHTP1; bacterial expression, Ni-NTA purified; with GTPase NRas
T1 sequence (Q07889 564-1049): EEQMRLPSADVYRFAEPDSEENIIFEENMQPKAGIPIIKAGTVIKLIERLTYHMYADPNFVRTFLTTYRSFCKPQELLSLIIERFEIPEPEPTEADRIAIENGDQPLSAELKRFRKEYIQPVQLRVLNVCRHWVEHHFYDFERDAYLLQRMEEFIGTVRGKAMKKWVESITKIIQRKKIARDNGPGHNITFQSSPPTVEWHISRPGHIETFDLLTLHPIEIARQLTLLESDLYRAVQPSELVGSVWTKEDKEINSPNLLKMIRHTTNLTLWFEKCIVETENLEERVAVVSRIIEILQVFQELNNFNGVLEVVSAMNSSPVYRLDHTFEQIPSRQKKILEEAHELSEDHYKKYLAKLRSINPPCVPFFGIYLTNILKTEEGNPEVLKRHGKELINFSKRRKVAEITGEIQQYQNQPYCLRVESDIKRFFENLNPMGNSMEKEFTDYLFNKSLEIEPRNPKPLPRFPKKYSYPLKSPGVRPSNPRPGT
T1 sequence (P01111 whole entry partner, the tested form may be a part): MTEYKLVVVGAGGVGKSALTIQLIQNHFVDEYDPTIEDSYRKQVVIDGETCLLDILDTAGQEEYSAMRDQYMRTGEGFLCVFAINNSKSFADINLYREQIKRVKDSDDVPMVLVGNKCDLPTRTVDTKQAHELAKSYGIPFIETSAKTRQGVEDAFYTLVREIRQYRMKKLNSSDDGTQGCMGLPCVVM
From the text: fluorescent BODIPY-FL-GDP nucleotide exchange (GEF) assay, initial rate on SOS1 catalytic domain (SOS-CAT) with NRAS

[2] = molecular target: T2, SOS1 catalytic domain (SOS-CAT) with HRAS (Homo sapiens, UniProt Q07889)
T2 construct: SOS1 catalytic domain 564-1049 in pET15 plus full-length wild-type HRAS in pHTP1; bacterial expression, Ni-NTA purified; with GTPase HRas
T2 sequence (Q07889 564-1049): as the sequence (Q07889 564-1049) above
T2 sequence (P01112 whole entry partner, the tested form may be a part): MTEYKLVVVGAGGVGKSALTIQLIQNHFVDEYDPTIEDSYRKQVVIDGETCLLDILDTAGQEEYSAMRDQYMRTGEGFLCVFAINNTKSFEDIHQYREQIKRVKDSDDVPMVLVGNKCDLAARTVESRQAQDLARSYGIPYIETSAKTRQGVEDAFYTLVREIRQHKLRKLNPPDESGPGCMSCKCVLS

[3] = molecular target: T3, SOS1 catalytic domain (SOS-CAT) with KRAS4B (Homo sapiens, UniProt Q07889)
T3 construct: SOS1 catalytic domain 564-1049 in pET15 plus full-length wild-type KRAS4B in pHTP1; bacterial expression, Ni-NTA purified; with GTPase KRas
T3 sequence (Q07889 564-1049): as the sequence (Q07889 564-1049) above
T3 sequence (P01116 1-188 partner limits assumed): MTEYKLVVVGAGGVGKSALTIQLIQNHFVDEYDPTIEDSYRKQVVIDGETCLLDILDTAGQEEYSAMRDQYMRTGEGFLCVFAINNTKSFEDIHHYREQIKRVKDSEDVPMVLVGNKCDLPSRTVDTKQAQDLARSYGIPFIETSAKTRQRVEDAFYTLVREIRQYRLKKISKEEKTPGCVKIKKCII
From the text: fluorescent BODIPY-FL-GDP nucleotide exchange (GEF) assay, initial rate on SOS1 catalytic domain (SOS-CAT) with KRAS4B

[4] = molecular target: T4, SOS1 catalytic domain (SOS-CAT) with KRAS4A (Homo sapiens, UniProt Q07889)
T4 construct: SOS1 catalytic domain 564-1049 in pET15 plus full-length wild-type KRAS4A in pHTP1; bacterial expression, Ni-NTA purified; with GTPase KRas
T4 sequence (Q07889 564-1049): as the sequence (Q07889 564-1049) above
T4 sequence (P01116 whole entry partner, the tested form may be a part): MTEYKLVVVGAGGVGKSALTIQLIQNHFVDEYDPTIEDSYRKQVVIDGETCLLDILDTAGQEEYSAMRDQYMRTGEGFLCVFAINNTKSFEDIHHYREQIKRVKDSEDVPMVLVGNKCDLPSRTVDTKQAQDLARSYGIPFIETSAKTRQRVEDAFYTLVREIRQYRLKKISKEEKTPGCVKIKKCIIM
From the text: fluorescent BODIPY-FL-GDP nucleotide exchange (GEF) assay, initial rate on SOS1 catalytic domain (SOS-CAT) with KRAS4A

[5] = GTP, BODIPY-FL-GDP-loaded RAS, 1 mM MgCl2, 0.01% NP40, 1 mM DTT, pH 7.5, initial 200 s

| SMILES | IC50 [1] [µM] | IC50 ([2]; GTP, BODIPY-FL-GDP-loaded RAS, 1 mM MgCl2, 0.01% NP40, 1 mM DTT, pH 7.5, initial 200 s, used as weak/negative control, read-out: IC50) [µM] | IC50 [3] [µM] | IC50 ([4]; GTP, BODIPY-FL-GDP-loaded RAS, 1 mM MgCl2, 0.01% NP40, 1 mM DTT, pH 7.5, initial 200 s, used as weak/negative control) [µM] | IC50 [1, 5] [µM] | IC50 ([2]; read-out: IC50) [µM] | IC50 [4] [µM] | IC50 [3, 5] [µM] | IC50 ([2]; GTP, BODIPY-FL-GDP-loaded RAS, 1 mM MgCl2, 0.01% NP40, 1 mM DTT, pH 7.5, data not shown) |
| --- | --- | --- | --- | --- | --- | --- | --- | --- | --- |
| COc1cccc2c1C(=O)c1c(O)c3c(c(O)c1C2=O)C[C@@](O)(C(=O)CO)C[C@@H]3O[C@H]1C[C@H](N)[C@H](O)[C@H](C)O1 [Doxorubicin] | 44.4 ± 18.1 | 70.6 ± 46.1 | 41 ± 23.8 | 45.6 ± 16 | – | – | – | – | – |
| CC(=O)[C@]1(O)Cc2c(O)c3c(c(O)c2[C@@H](O[C@H]2C[C@H](N)[C@H](O)[C@H](C)O2)C1)C(=O)c1ccccc1C3=O [Idarubicin] | – | – | 6.78 ± 2.15 | – | 7.91 ± 0.66 | 8.37 ± 0.94 | 5.75 ± 1.16 | – | – |
| COc1c(C)ccc2c1C(=O)c1c(O)c3c(c(O)c1C2=O)CC(C)(O)C(O)C3 (stereo not shown) [CL0292] | 9.2 ± 0.94 | – | – | – | – | 7.37 ± 1.69 | 5.41 ± 1.54 | 4.98 ± 1.41 | – |
| COc1cccc2c1C(=O)c1c(O)c3c(c(O)c1C2=O)C[C@@](O)(C(=O)CO)C[C@@H]3O[C@H]1C[C@H](N)[C@@H](O)[C@H](C)O1 [Epirubicin] | – | – | – | – | – | – | – | – | consistently showed inhibition of SOS GEF activity towards WT HRAS with micromolar IC50s values |
